Experimental data published in publication PMC9411558, “Toxicity mechanisms of aflatoxin M1 assisted with molecular docking and the toxicity-limiting role of trans-resveratrol” (Scientific Reports, 2022).
Where “and” joins values, the source holds several entries; their conditions need not be identical. Equal entries are not always repeated. Where two headings read alike, the source gives them in different places. Marks after values point to notes of the source that are not given here.

Key:
leukocyte cell nuclei = assay type: in vivo, swiss albino mice
Experimental: The protocol of Tice et al.[19] was performed for alkaline single cell gel electrophoresis with slight modifications. Slides were dipped in 1% normal melting point agarose for coating and allowed to dry at 37 °C. 10 µL of peripheral blood were added to 120 µL of 0.5% low-melting-point agarose at 37 °C, layered onto a coated slide, covered with a coverslip and left at 4 °C for 5 min. to solidify the agarose. The coverslip was removed and the slides were immersed into a lysis solution (2.5 M NaCl, 100 mm Na2EDTA, 10 mM Tris–HCl buffer, pH 10, 1% Triton X-100) for approximately 1 h. After lysis, the slides were transferred to a horizontal gel electrophoresis tank with a fresh and cooled alkaline buffer. After a 20 min. DNA unwinding period, electrophoresed at 0.86 V/cm (20 V, 300 mA) for 20 min. […] To prevent DNA damage, all steps were performed in low light and analyzed by fluorescence microscopy. Comets were analyzed with Comet Assay software version 1.2.3b[20] with the parameters of tail DNA length. A total of 600 cells were analyzed for each group, 100 in each animal for DNA damage. The extent of DNA damage was scored from 0 to 4 depending upon the level of DNA damage. […] The total DNA damage per group, expressed as arbitrary units, was calculated using Eq. (2).2 Arbitraryunit=∑i=04Nixi (i: degree of damage (0, 1, 2, 3, 4), Ni: the number of cells in i degree).

bone marrow cells [1] = assay type: in vivo, Mus musculus
Experimental: (§1) The genotoxic effects of AFM1 and the genotoxicity reducing effects of t-rsv were determined by MN and CAs analyses. MN test was performed in erythrocyte, buccal mucosa epithelium and leukocyte cells. CAs analyzes were investigated in bone marrow cells. The cytotoxic effects of AFM1 and the cytotoxicity reducing effects of t-rsv were determined by MI in bone marrow cells.
(§2) CAs and MI analysis were determined in the bone marrow. For this aim, mice treated with 0.025% colchicine were sacrificed 2 h later under halothane anesthesia. Bone marrow obtained from the femurs of mice was aspirated, washed with the physiological solution and 0.075 M KCl was transferred. After fixation with Carnoy's solution, samples stained with Giemsa (5%) were examined under a microscope. MI rates and CAs frequencies were determined in the prepared slides and 1.000 cells were analyzed for each group. In prepared slides, MI was determined as the percentage of dividing cells among 1000 nucleated cells for each group. Recovery effects (RE) of t-rsv against AFM1 induced genotoxicity were calculated by using Eq. (1). In determining RE, data belonging to Group VI, where t-rsv provided the highest healing effect, Group IV, in which AFM1 was treated alone, and the control group were used.1 RE%=D1-D2/D3-D2×100 D1: data of AFM1 + t-rsv treated group, D2: Data of AFM1 treated group, D3: data of control.

liver and kidney tissues = assay: Antioxidant/oxidant balance: MDA and GSH levels in kidney and liver; assay type: in vivo, Mus musculus
Experimental: To determine the effects of AFM1 and t-rsv on antioxidant/oxidant balance, malondialdehyde and glutathione levels were measured in the kidney and liver. For this purpose, liver and kidney organs were isolated from each mouse sacrificed under halothane anesthesia and washed with a sterile solution. Liver and kidney organs were homogenized with cold 0.15 M KCl solution. Homogenates were centrifuged at 5000g and 4 °C for 1 h and MDA and GSH analyzes were performed in the supernatant.

[2] = assay type: in vivo, Mus musculus
Experimental: In this study, 36 healthy male Mus musculus (12–14 weeks old, 25–30 g) were used as subjects and obtained from GRU-Experimental Animals Laboratory. Albino mice were maintained in stainless steel cages, at 22 ± 3 °C and 55 ± 5% relative humidity, 12 h light/12 h dark cycle. All experiments were performed in accordance with the guidelines of the Animal Experiments Local Ethics Committee of Giresun University and approved by the Animal Ethics Committee of Giresun University (protocol number: 2017/02). This study was carried out in compliance with the ARRIVE guidelines. Six groups were formed with six mice in each group.
After the mice were stunned under halothane anesthesia, their body weights were measured before the administration period and at the end of the 28-day administration period. In addition, at the end of the 28th day, the liver and kidney organs of the sacrificed mice were isolated and their weights were measured.

[3] = Serum parameters (AST, ALT, BUN, creatinine); assay type: in vivo, Mus musculus
Experimental: Whole blood samples from mice stunned under halothane anesthesia were collected in vacuum tubes and centrifuged at 1200g at + 4 °C for 10 min. In serum obtained from blood, aspartate aminotransferase (AST, Teco Diagnostics, CAT. NO: A559–150), alanine aminotransferase (ALT, Teco Diagnostics, CAT. NO: A524–150), blood urea nitrogen (BUN, Teco Diagnostics, CAT. NO: B549–150) and creatinine (Teco Diagnostics) levels were measured on a Medispec 99M autoanalyzer using a commercial kit[16].

[4] = assay type: in vivo, Mus musculus; remark: listed apart in the source
Experimental: In order to interpret the changes in body weight and organ weights, the weekly feed consumption of the mice was measured. Albino mice can consume approximately 3–4 g of feed in a day[15]. In line with this information, 30 g of feed per day were put into the cages, with 5 g for each mouse in each group. Feed consumption was calculated by measuring the amount of feed remaining in the container at the end of the 7th day of each week during the 28-day application period.

bone marrow cells [5] = assay type: in vivo, Mus musculus; remark: listed apart in the source
Experimental: as §1
as §2, with “MI rates and CAs frequencies were determined in the prepared slides and 1.000 cells were analyzed for each group.” left out

[6] = rabbit, in vivo; cited from earlier work
albino mice = conditions: 10 mg/kg and 20 mg/kg doses
[7] = tested on: buccal mucosa epithelial cells; assay: MN test in buccal mucosa epithelial cells; assay type: in vivo, Mus musculus; conditions: 20 mg/kg t-rsv against 16 mg/kg AFM1
Experimental: as §1
For the MN test in the buccal mucosa epithelial cells, the mouths of the mice stunned with halothane anesthesia were rinsed with distilled water, and epithelial cells were taken from the left and right buccal mucosa and spread on the slide. Preparations fixed in methanol: acetic acid solution were stained with Fast Green and Feulgen then examined with a research microscope. For the MN test in erythrocytes, blood samples (5 µL) from the tail veins of mice stunned with halothane anesthesia were mixed with EDTA (3%) solution and spread on sterile slides. The preparations were fixed in ethanol (70%) for 2 min. were left to dry at 21 °C for 24 h. Slides were stained with Giemsa (5%) for 15 min. and analyzed under a microscope. For the leukocyte MN test, blood samples were obtained from each mouse and centrifuged at 5000 rpm for 10 min. 5 mL of 0.075 M KCl solution was transferred to the pellet. […]

[8] = in vivo; cited from earlier work
[9] = Group II: 10 mg/kg b.w. t-rsv, 28 days
[10] = Group III: 20 mg/kg b.w. t-rsv, 28 days
[11] = Group II: 10 mg/kg b.w. t-rsv, 600 cells analyzed
[12] = Group III: 20 mg/kg b.w. t-rsv, 600 cells analyzed

With COc1cc2c(c3oc(=O)c4c(c13)CCC4=O)C1(O)C=COC1O2 (centres unmarked) [AFM1, Aflatoxin M1] the “average DNA damage score” value (leukocyte cell nuclei; mouse, in vivo, iv, 16 mg/kg) was 255.67 ± 16.57, the “decrease in MI rate compared to the control group” value (bone marrow cells [1]; mouse, in vivo) was 32.5% and the “decrease in body weight compared to the control group” value (mouse, in vivo) was 17.5%. For the same compound, the “FBW: Final body weight” value (mouse, in vivo, iv, 16 mg/kg) was 41.38 ± 1.98 g, the “TWG: Total weight gain” value (mouse, in vivo, iv, 16 mg/kg) was 3.5 g and 3.50^d g and the “decrease of kidney GSH level compared to the control group” value (liver and kidney tissues; mouse, in vivo) was 39.3%. For the same compound, the “decrease of liver GSH level compared to the control group” value (liver and kidney tissues; mouse, in vivo) was 63.7%, the “increase of kidney MDA level compared to the control group” value (liver and kidney tissues; mouse, in vivo) was 1.41 times and the “increase of liver MDA level compared to the control group” value (liver and kidney tissues; mouse, in vivo) was 1.22 times. The “decrease in kidney weight compared to the control group” value ([2]; mouse, in vivo) was 51.3%, the “decrease in liver weight compared to the control group” value ([2]; mouse, in vivo) was 43.1% and the “Organ weight, kidney” value ([2]; mouse, in vivo, iv, 16 mg/kg) was 0.74 ± 0.15^d. For the same compound, the “Organ weight, liver” value ([2]; mouse, in vivo, iv, 16 mg/kg) was 1.50 ± 0.24^d, the “increase in ALT level compared to the control group” value ([3]; mouse, in vivo, iv, 16 mg/kg) was 35.8% and the “increase in AST level compared to the control group” value ([3]; mouse, in vivo, iv, 16 mg/kg) was 33.6%. The “increase in BUN level compared to the control group” value ([3]; mouse, in vivo, iv, 16 mg/kg) was 43.6%, the “increase in creatinine level compared to the control group” value ([3]; mouse, in vivo, iv, 16 mg/kg) was 58.4% and the “Feed consumption, 7th day” value ([4]; mouse, in vivo, iv, 16 mg/kg) was 148.6. For the same compound, the “Feed consumption, 14th day” value ([4]; mouse, in vivo, iv, 16 mg/kg) was 147.1, the “Feed consumption, 21st day” value ([4]; mouse, in vivo, iv, 16 mg/kg) was 131.1 and the “Feed consumption, 28th day” value ([4]; mouse, in vivo, iv, 16 mg/kg) was 119.8. For the same compound, the “CAs frequency, Acentric” value (bone marrow cells [5]; mouse, in vivo, iv, 16 mg/kg) was 12.70 ± 0.94^a, the “CAs frequency, Break” value (bone marrow cells [5]; mouse, in vivo, iv, 16 mg/kg) was 60.20 ± 4.38^a and the “CAs frequency, Dicentric” value (bone marrow cells [5]; mouse, in vivo, iv, 16 mg/kg) was 8.20 ± 0.84^a. The “CAs frequency, Fragment” value (bone marrow cells [5]; mouse, in vivo, iv, 16 mg/kg) was 31.80 ± 3.12^a, the “CAs frequency, Gap” value (bone marrow cells [5]; mouse, in vivo, iv, 16 mg/kg) was 20.80 ± 2.65^a and the “CAs frequency, Ring” value (bone marrow cells [5]; mouse, in vivo, iv, 16 mg/kg) was 48.40 ± 4.15^a.

In the case of Aflatoxin G2 [AFG2], the “body weight loss compared to the control group” value [6] is given as “approximately 539 g”.

With Oc1ccc(/C=C/c2cc(O)cc(O)c2)cc1 [t-rsv, trans-resveratrol] the “DNA damage by t-rsv application alone” value (leukocyte cell nuclei; Group II and III vs control, p > 0.05) was “did not induce DNA damage”, the “RE, MI Rate” value (bone marrow cells [1]; 20 mg/kg t-rsv against 16 mg/kg AFM1) was 80.7% and the MI levels (bone marrow cells [1]; control group, 10 mg/kg, 20 mg/kg t-rsv-treated groups) was 13.9–14.3%. The “FBW: Final body weight” value [9] was 49.91 ± 2.10 g, the “TWG: Total weight gain” value [9] was 11.96^a g and the “FBW: Final body weight” value [10] was 50.66 ± 2.18 g. The “TWG: Total weight gain” value [10] was 12.40^a g, the “toxic effect of resveratrol alone” value (albino mice) was “did not have a toxic effect” and the “decrease in MDA level” value (liver and kidney tissues; t-rsv with AFM1, liver and kidney, dose not stated) was 16%. The “Organ weight, kidney” value [2, 9] was 1.55 ± 0.30^a, the “Organ weight, liver” value [2, 9] was 2.62 ± 0.34^a and the “Organ weight, kidney” value [2, 10] was 1.53 ± 0.26^a. For the same compound, the “Organ weight, liver” value [2, 10] was 2.65 ± 0.42^a, the “protection against abnormalities in serum parameters” value ([3]; 20 mg/kg t-rsv against AFM1) was 45.69–60.3% and the “Feed consumption, 7th day” value ([4]; Group II: 10 mg/kg b.w. t-rsv) was 151.9. For the same compound, the “Feed consumption, 14th day” value ([4]; Group II: 10 mg/kg b.w. t-rsv) was 152.7, the “Feed consumption, 21st day” value ([4]; Group II: 10 mg/kg b.w. t-rsv) was 155.7 and the “Feed consumption, 28th day” value ([4]; Group II: 10 mg/kg b.w. t-rsv) was 153.2. For the same compound, the “Feed consumption, 7th day” value ([4]; Group III: 20 mg/kg b.w. t-rsv) was 157.6, the “Feed consumption, 14th day” value ([4]; Group III: 20 mg/kg b.w. t-rsv) was 153.2 and the “Feed consumption, 21st day” value ([4]; Group III: 20 mg/kg b.w. t-rsv) was 155.6. The “Feed consumption, 28th day” value ([4]; Group III: 20 mg/kg b.w. t-rsv) was 151.9, the “reduction in CA types” value (bone marrow cells [5]; 10 mg/kg and 20 mg/kg t-rsv treatment with AFM1) was 22.6–63.9% and the “reduction of gap formation” value (bone marrow cells [5]; 20 mg/kg t-rsv with AFM1) was 63.9%. For the same compound, the “CAs frequency, Acentric” value (bone marrow cells [5]; [11]) was 0.00 ± 0.00^d, the “CAs frequency, Break” value (bone marrow cells [5]; [11]) was 0.00 ± 0.00^d and the “CAs frequency, Dicentric” value (bone marrow cells [5]; [11]) was 0.00 ± 0.00^d. For the same compound, the “CAs frequency, Fragment” value (bone marrow cells [5]; [11]) was 0.00 ± 0.00^d, the “CAs frequency, Gap” value (bone marrow cells [5]; [11]) was 0.00 ± 0.00^d and the “CAs frequency, Acentric” value (bone marrow cells [5]; [12]) was 0.00 ± 0.00^d. The “CAs frequency, Break” value (bone marrow cells [5]; [12]) was 0.00 ± 0.00^d, the “CAs frequency, Dicentric” value (bone marrow cells [5]; [12]) was 0.00 ± 0.00^d and the “CAs frequency, Fragment” value (bone marrow cells [5]; [12]) was 0.00 ± 0.00^d. For the same compound, the “CAs frequency, Gap” value (bone marrow cells [5]; [12]) was 0.00 ± 0.00^d and the “RE, MN Buccosal” value [7] was 48.9%.

In the case of Aflatoxin B1 [AFB1], the “reduction of weight gain compared to control” value [8] is listed as 33.94% and the “body weight loss compared to the control group” value [6] is listed as “approximately 539 g”.
